This note sets out measurements from ChEMBL document CHEMBL5120786, “Metabolomics-assisted discovery of a new anticancer GLS-1 inhibitor chemotype from a nortopsentin-inspired library: From phenotype screening to target identification” (Eur J Med Chem, 2022).

For assay [1], the system named is Panel NCI-60 (60 carcinoma cell lines). Briefly: Anticancer activity against human NCI-60 cells assessed as cell growth inhibition incubated for 72 hrs by MTT assay. It is filed as functional. For orientation: Tetrazolium dyes change colour on reduction, which living cells bring about.
A further assay deals with MCF7. Briefly: Cytotoxicity against human MCF7 cells assessed as cell viability incubated for 72 hrs by MTT assay. It is filed as functional, cell-based.
Assay [2] relates to HepG2. Put plainly: Cytotoxicity against human HepG2 cells assessed as cell viability incubated for 72 hrs by MTT assay. It is filed as functional, cell-based.
Another assay concerns MCF-10A. Briefly: Cytotoxicity against human MCF-10A cells assessed as cell viability incubated for 72 hrs by MTT assay. The assay is classed as functional, cell-based.
The subject of assay [3] is HepG2. Put plainly: Downregulation of polyamine pathway in human HepG2 cells assessed as increase in intracellular ROS production. It is filed as functional, cell-based.
Assay [4] can be described thus: Cytotoxicity against human U-87 MG cells overexpressing GLS-1. It is filed as functional, cell-based, U-87MG ATCC.
The subject of assay [5] is HepG2. Briefly: Cytotoxicity against human HepG2 cells assessed as cell viability incubated for 72 hrs in presence of alpha-ketoglutarate by MTT assay. The assay is classed as functional, cell-based. Particulars: HepG2, 72 h.
Assay [6] has as its system HepG2. Put plainly: Inhibition of cell migration in human HepG2 cells assessed as reduction in wound closure at 1.5 uM measured after 24 to 48 hrs by wound healing assay based contrat-phase microscopic analysis. The assay is classed as functional. Particulars: time 24-48 hrs.
Assay [7] deals with HepG2. Briefly: Inhibition of cell invasion in human HepG2 cells assessed as reduction in MMP-2 level at 2.5 uM after 72 hrs by densitometric analysis. It is filed as functional. Further details: scale not given: the % may be the effect or the level left.
The test system of assay [8] is HepG2. Put plainly: Inhibition of cell invasion in human HepG2 cells assessed as reduction in MMP-9 level at 2.5 uM after 72 hrs by densitometric analysis. The assay is classed as functional. Further details: scale not given: the % may be the effect or the level left.
For assay [9], the target named is T1, Glutaminase kidney isoform, mitochondrial (Homo sapiens, UniProt O94925).
T1 sequence (O94925 whole entry): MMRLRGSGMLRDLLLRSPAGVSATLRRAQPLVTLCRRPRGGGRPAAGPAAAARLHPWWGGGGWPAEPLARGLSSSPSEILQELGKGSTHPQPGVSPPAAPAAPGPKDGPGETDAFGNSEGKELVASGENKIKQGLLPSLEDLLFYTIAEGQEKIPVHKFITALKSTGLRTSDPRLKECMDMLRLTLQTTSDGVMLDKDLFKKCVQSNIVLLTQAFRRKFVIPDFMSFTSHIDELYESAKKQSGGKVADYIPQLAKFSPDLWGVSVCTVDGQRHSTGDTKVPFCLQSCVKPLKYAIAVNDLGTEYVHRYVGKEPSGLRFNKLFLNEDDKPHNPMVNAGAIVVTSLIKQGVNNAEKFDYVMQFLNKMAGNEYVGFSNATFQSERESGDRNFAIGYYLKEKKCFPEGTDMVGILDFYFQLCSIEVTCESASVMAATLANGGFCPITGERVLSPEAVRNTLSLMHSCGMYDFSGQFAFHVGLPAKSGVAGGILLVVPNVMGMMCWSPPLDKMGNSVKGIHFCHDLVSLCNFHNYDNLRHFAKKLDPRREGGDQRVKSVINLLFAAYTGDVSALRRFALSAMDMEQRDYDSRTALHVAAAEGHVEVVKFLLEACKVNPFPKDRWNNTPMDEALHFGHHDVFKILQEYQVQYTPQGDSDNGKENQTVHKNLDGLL
Put plainly: Inhibition of human recombinant GLS-1 by measuring glutamate production incubated for 1 hr by fluorescence based multimode plate reader method.

The subject of assay [10] is HepG2. Put plainly: Upregulation of stearoyl-carnitine level in human HepG2 cells. The assay is classed as functional, cell-based.
For a further assay, the system named is SAOS-2. Put plainly: Cytotoxicity against human SAOS-2 cells overexpressing GLS-1. It is filed as functional, cell-based.
Assay [11] concerns the target T2, Glutaminase liver isoform, mitochondrial (Homo sapiens, UniProt Q9UI32).
T2 sequence (Q9UI32 whole entry): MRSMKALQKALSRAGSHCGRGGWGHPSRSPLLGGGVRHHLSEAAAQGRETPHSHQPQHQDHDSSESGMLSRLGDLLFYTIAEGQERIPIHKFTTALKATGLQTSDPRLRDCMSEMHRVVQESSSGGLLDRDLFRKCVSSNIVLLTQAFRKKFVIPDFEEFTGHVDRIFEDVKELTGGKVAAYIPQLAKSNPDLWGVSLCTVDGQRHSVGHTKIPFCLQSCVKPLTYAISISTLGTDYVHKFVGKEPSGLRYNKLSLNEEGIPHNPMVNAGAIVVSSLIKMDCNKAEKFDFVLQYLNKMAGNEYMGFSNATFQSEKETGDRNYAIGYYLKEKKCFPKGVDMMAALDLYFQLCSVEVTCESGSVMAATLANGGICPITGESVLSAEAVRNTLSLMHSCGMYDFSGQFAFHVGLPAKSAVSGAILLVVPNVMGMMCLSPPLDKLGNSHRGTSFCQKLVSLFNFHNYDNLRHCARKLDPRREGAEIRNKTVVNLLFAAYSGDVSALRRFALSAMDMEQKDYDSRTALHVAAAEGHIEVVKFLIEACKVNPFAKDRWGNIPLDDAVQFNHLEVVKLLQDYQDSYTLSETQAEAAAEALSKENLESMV
Put plainly: Inhibition of human recombinant GLS-2 by measuring glutamate production incubated for 1 hr by fluorescence based multimode plate reader method.

Assay [12] relates to HepG2. Put plainly: Inhibition of cell invasion in human HepG2 cells assessed as reduction in MMP-2 level at 2.5 uM after 8 hrs by densitometric analysis. It is filed as functional. Further details: scale not given: the % may be the effect or the level left.
Another assay concerns A549. Briefly: Cytotoxicity against human A549 cells overexpressing GLS-1. The assay is classed as functional, cell-based.
For assay [13], the system named is HepG2. Put plainly: Downregulation of spermidine level in human HepG2 cells. It is filed as functional, cell-based.
The test system of assay [14] is HepG2. Briefly: Anticlonogenic activity against human HepG2 cells assessed as reduction of colony formation at 0.5 uM incubated for 14 days by crystal violet staining method. It is filed as functional. The arrangement: scale not given: the % may be the effect or the level left. Particulars: time 14 day.
For the next assay, the system named is A-375. Put plainly: Cytotoxicity against human A-375 cells overexpressing GLS-1. The assay is classed as functional, cell-based.
A further assay deals with MIA PaCa-2. Put plainly: Cytotoxicity against human MIA PaCa-2 cells overexpressing GLS-1. It is filed as functional, cell-based.
The test system of assay [15] is HepG2. Put plainly: Induction of cell cycle arrest in human HepG2 cells assessed as decrease in cyclin-B1 expression at 1.5 uM measured after 8 to 24 hrs by Western blotting analysis relative to control. It is filed as functional. The arrangement: scale not given: the % may be the effect or the level left. As to conditions: time 8-24 hrs. On the technique in general: In western blotting, separated proteins are transferred to a membrane and probed.

For assay [16], the system named is HepG2. Briefly: Downregulation of c-Myc level in human HepG2 cells. The assay is classed as functional, cell-based.
Assay [17] relates to HepG2. Put plainly: Downregulation of GSH level in human HepG2 cells. It is filed as functional, cell-based.
Assay [18] has as its system HepG2. Briefly: Inhibition of cell invasion in human HepG2 cells assessed as reduction in MMP-9 level at 2.5 uM after 8 hrs by densitometric analysis. It is filed as functional. The arrangement: scale not given: the % may be the effect or the level left.
Assay [19] concerns HepG2. Briefly: Induction of cell cycle arrest in human HepG2 cells assessed as decrease in cyclin-B1 expression at 1.5 uM measured after 72 hrs by Western blotting analysis relative to control. The assay is classed as functional. The arrangement: scale not given: the % may be the effect or the level left.

Active and inactive are the calls of the source. The calls are words filed in the database; no cut-off is given here.

`Cn1cc(-c2csc(-c3cn(CCCCN4CCCCC4)c4ccc(F)cc34)n2)c2cccnc21`: the GI50 in assay [1] (read-out: GI50) is 1.46 µM; in assay [1] (read-out: pGI50 (converted)), 16.2 µM.

On to `COc1ccc2c(c1)c(-c1nc(-c3c[nH]c4ncccc34)cs1)cn2CCCN1CCOCC1`, for which the outcome with MCF7 and in the assay on HepG2 [2] was Active. For the same molecule, the GI50 in assay [1] (read-out: GI50) is 0.48 µM; in [1] (read-out: pGI50 (converted)), 4.07 µM.

As to `OCCn1cc(-c2nc(-c3c[nH]c4ncccc34)cs2)c2cc(Br)ccc21`, the result with MCF7 and in the assay on HepG2 [2] was Active.

On to `Fc1ccc2c(c1)c(-c1nc(-c3c[nH]c4ncccc34)cs1)cn2CCCN1CCOCC1`, for which the result with MCF-10A was Active.

For `COc1ccc2c(c1)c(-c1nc(-c3cn(C)c4ncccc34)cs1)cn2CCCCN1CCOCC1`, the values for the GI50 in assay [1] (read-out: GI50) and in assay [1] (read-out: pGI50 (converted)) were 0.02 µM and 12 µM, respectively. For the same molecule, the outcome in the assay with MCF-10A was Active.

As for `COc1ccc2c(c1)c(-c1nc(-c3cn(C)c4ncccc34)cs1)cn2CCN1CCCCC1`, the outcome in the assay on MCF7 and with MCF-10A was Active.

Regarding `Br.Fc1ccc2c(c1)c(-c1nc(-c3c[nH]c4ncccc34)cs1)cn2CCCCN1CCOCC1`, the result in the assay on HepG2 [3], in the assay with HepG2 [6], with HepG2 [10], in the assay on HepG2 [13], with HepG2 [16] and in the assay on HepG2 [17] was Active. Also, the EC50 worked out at 3.63 µM in [4]; 27.2 µM with HepG2 [5]; 23.1 µM in the assay with MCF7 (MCF7, 72 h); 3.96 µM in assay [9]; 4.85 µM with SAOS-2; 12.9 µM in [11]. For the same molecule, the EC50 in the assay with HepG2 [2] (HepG2, 72 h) stood at 3.25 µM; with A549 it was 8.47 µM; in the assay with A-375, 5.84 µM; in the assay with MIA PaCa-2, 6.98 µM; with MCF-10A it was 29.1 µM. The Activity in the assay with HepG2 [7] is recorded as 80%; in the assay on HepG2 [8], 75%; with HepG2 [12] it was 20%; with HepG2 [14] it was “<=70%”; with HepG2 [15], 50%; in the assay on HepG2 [18], 50%. Besides, the Activity in the assay with HepG2 [19] is 75%.

Take `COc1ccc2c(c1)c(-c1nc(-c3c[nH]c4ncccc34)cs1)cn2CCCCN1CCOCC1`: the results for the GI50 in assay [1] (read-out: GI50) and in assay [1] (read-out: pGI50 (converted)) were 0.22 µM and 5.25 µM, respectively.

Consider `COc1ccc2c(c1)c(-c1nc(-c3c[nH]c4ncccc34)cs1)cn2CCCCN1CCCCC1`, for which the results for the GI50 in assay [1] (read-out: GI50) and in [1] (read-out: pGI50 (converted)) were 1.18 µM and 1.95 µM, respectively.

Regarding `COc1ccc2c(c1)c(-c1nc(-c3c[nH]c4ncccc34)cs1)cn2CCO`, the outcome in the assay with MCF7 and with HepG2 [2] was Active.

Turning to `Cn1cc(-c2csc(-c3cn(CCCCN4CCOCC4)c4ccc(F)cc34)n2)c2cccnc21`, the result in the assay on MCF-10A was Active.

In the case of `Fc1ccc2c(c1)c(-c1nc(-c3c[nH]c4ncccc34)cs1)cn2CCCN1CCCCC1`, the result with MCF7 and in the assay on MCF-10A was Active. In addition, the GI50 is 1.28 µM in [1] (read-out: GI50) and 3.72 µM in assay [1] (read-out: pGI50 (converted)).

For `COc1ccc2c(c1)c(-c1nc(-c3cn(C)c4ncccc34)cs1)cn2CCCCN1CCCCC1`, the outcome in the assay with MCF7 and in the assay with HepG2 [2] was Active. The GI50 in assay [1] (read-out: GI50) was 1.07 µM; in assay [1] (read-out: pGI50 (converted)) it was 1.91 µM.

Turning to `Cn1cc(-c2csc(-c3cn(CCO)c4ccc(Br)cc34)n2)c2cccnc21`, the outcome in the assay with MCF7 and in the assay with HepG2 [2] was Active.

As for `Cn1cc(-c2csc(-c3cn(CCCCN4CCOCC4)c4ccccc34)n2)c2cccnc21`, the outcome in the assay on MCF-10A was Active.

For `c1cnc2[nH]cc(-c3csc(-c4cn(CCCCN5CCCCC5)c5ccccc45)n3)c2c1`, the result in the assay with MCF7 and with HepG2 [2] was Active.

For the molecule `COc1ccc2c(c1)c(-c1nc(-c3c[nH]c4ncccc34)cs1)cn2CCCN1CCCCC1`, the result in the assay with MCF7 and in the assay on MCF-10A was Active. The GI50 was 1.19 µM in [1] (read-out: GI50) and 3.31 µM in assay [1] (read-out: pGI50 (converted)).

Turning to `COc1ccc2c(c1)c(-c1nc(-c3c[nH]c4ncccc34)cs1)cn2CCN1CCCCC1`, the result in the assay on MCF7 and with HepG2 [2] was Active.

Turning to `Cn1cc(-c2csc(-c3cn(CCN4CCOCC4)c4ccc(F)cc34)n2)c2cccnc21`, the outcome with MCF7 and in the assay on HepG2 [2] was Active. Besides, the GI50 in [1] (read-out: GI50) is 1.52 µM; in [1] (read-out: pGI50 (converted)) it was 5.62 µM.

As for `c1cnc2[nH]cc(-c3csc(-c4cn(CCCN5CCCCC5)c5ccccc45)n3)c2c1`, the result in the assay on MCF7 and in the assay with MCF-10A was Active. Also, the results for the GI50 in assay [1] (read-out: GI50) and in assay [1] (read-out: pGI50 (converted)) were 1.1 µM and 2.34 µM, respectively.

With `Cn1cc(-c2csc(-c3cn(CCO)c4ccccc34)n2)c2cccnc21`, the result in the assay on MCF7 and in the assay with HepG2 [2] was Active.

For orientation: EC50 means the concentration at which the effect is half-maximal.
